Source: ChEMBL document CHEMBL6177972 (J Nat Prod, 2025)

Columns and labels:
Assay type in all cases: functional, cell-based
K562 = experiment: Anticancer activity against human K562 cells assessed as cell growth inhibition incubated for 4 days by MTT assay; conditions: K562, 96 h
[1] = Anticancer activity against human MM649 cells assessed as cell growth inhibition incubated for 4 days by MTT assay; conditions: MM649, 96 h
HeLa = experiment: Anticancer activity against human HeLa cells assessed as cell growth inhibition incubated for 4 days by MTT assay; conditions: 96 h

Structure (SMILES) | IC50 (K562) [µM] | IC50 (HeLa) [µM] | IC50 [1] [µM]
CCCCCCCCCCCCC[C@H]1CC(=O)C[C@@]2(C[C@@H]3OC(=O)C=C[C@@H]3O2)O1 | 11.9 | 3.9 | 3.1
O=C1C=C[C@H](O)[C@H](CCCCCCCCc2ccc3c(c2)OCO3)O1 | 13.6 | 5.6 | 7.6
COc1cccc2c1C(=O)c1c(O)c3c(c(O)c1C2=O)C[C@@](O)(C(=O)CO)C[C@@H]3O[C@H]1C[C@H](N)[C@H](O)[C@H](C)O1 [DOXORUBICIN] | 0.12 | – | 0.05
CCCCCCCCCCCCC[C@H]1C[C@H](O)C[C@@]2(C[C@@H]3OC(=O)C=C[C@@H]3O2)O1 | 15.6 | 4.2 | 2.7
CCCCCCCCCCCCC[C@H](O)C[C@H]1C[C@H](O)C[C@@]2(C[C@@H]3OC(=O)C=C[C@@H]3O2)O1 | 20.3 | 5.1 | 3.3
O=C1C[C@H](CCCCCCCCc2ccc3c(c2)OCO3)O[C@@]2(C1)C[C@@H]1OC(=O)C=C[C@@H]1O2 | 16.6 | 5.9 | 5.9
CCCCCCCCCCCCC[C@H]1C[C@H](OC(C)=O)C[C@@]2(C[C@@H]3OC(=O)C=C[C@@H]3O2)O1 | 10.5 | 2.3 | 1.9

Continued, in another order:

IC50 (K562) [µM] | IC50 (HeLa) [µM] | Structure (SMILES) | IC50 [1] [µM]
25.8 | 18.1 | O=C1C=C[C@@H]2O[C@]3(C[C@@H](O)C[C@H](C[C@@H](O)CCCCCCCCc4ccc5c(c4)OCO5)O3)C[C@@H]2O1 | 14.9
39.6 | 27.1 | CC(=O)O[C@H]1C[C@H](C[C@@H](O)CCCCCCCCc2ccc3c(c2)OCO3)O[C@@]2(C1)C[C@@H]1OC(=O)C=C[C@@H]1O2 | 24.5
13.5 | 4.5 | CC(=O)O[C@H]1C[C@H](CCCCCCCCc2ccc3c(c2)OCO3)O[C@@]2(C1)C[C@@H]1OC(=O)C=C[C@@H]1O2 | 3.9
25.1 | 13.6 | O=C1C=C[C@@H]2O[C@]3(C[C@@H](O)C[C@H](CCCCCCCCc4ccc5c(c4)OCO5)O3)C[C@@H]2O1 | 10.8
